These results are taken from US6685851B2, “Derivatives of cycloaliphatic diamines as cosolvents for aqueous hydrophobic amines” (PRC-DeSoto International, Inc., priority 1999, dated 2004).

Where only a bound is given, the exact number is not on record here.

What all share (format): physicochemical
The nature of series [1]: Water added dropwise to 1:1 hydrophobic amine/cosolvent amine blend until turbidity (visible light scattering). On the procedure:
To illustrate the efficiency of the present invention to solubilize various hydrophobic amines, one part by weight of various commercially available hydrophobic amines is blended with one part by weight of a cosolvent amine. Water is then added dropwise with vigorous stirring to the blend of one part hydrophobic amine and one part cosolvent amine. The parts of water added is monitored by the appearance of turbidity as measured by visible light scattering. […] Cosolvents amines A-D are those of the present invention. In order to assess the relative efficiency of the cosolvent amines of the present invention, A-D; conventional cosolvent amines, E-I and the omission of a cosolvent, J are also evaluated.

The nature of series [2]: Aqueous solution of polyamidoamine with cosolvent amine, appearance and stability (Example 1). As to conditions: 10 parts polyamidoamine, 10 parts cosolvent, 150 parts room temperature water. On the procedure: 10 parts of a polyamidoamine (Air Products 506 amidoamine) is added to a reactor equipped with a mechanical agitator.
In a further series the target is T1, bacteriorhodopsin (Halobacterium salinarum, UniProt P02945).
T1 construct: A lyophilized powder of bacteriorhodopsin is obtained according to D. Oesterhett Mtds; Enzy 31, 1974, 667; made in house; host or cells: Isolated from the natural producer (Halobacterium) by the cited literature method
T1 sequence (P02945 14-262): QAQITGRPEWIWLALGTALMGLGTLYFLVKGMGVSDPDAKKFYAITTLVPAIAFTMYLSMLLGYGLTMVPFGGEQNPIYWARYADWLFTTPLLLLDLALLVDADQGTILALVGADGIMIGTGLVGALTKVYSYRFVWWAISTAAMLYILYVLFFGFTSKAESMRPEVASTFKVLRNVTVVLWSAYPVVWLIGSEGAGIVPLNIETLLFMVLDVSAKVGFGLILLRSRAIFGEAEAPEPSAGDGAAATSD
In words: Dispersion of bacteriorhodopsin in aqueous cosolvent by small angle x-ray scattering (Example 3). As to conditions: 0.1 gram bacteriorhodopsin, 0.1 grams cosolvent, 1.1 grams water. An excerpt:
A lyophilized powder of bacteriorhodopsin is obtained according to D. Oesterhett Mtds. Enzy 31, 1974, 667. 0.1 gram of bacteriorhodopsin is mixed with 0.1 grams of 1,2 diaminocycylohexane cosolvent and 1.1 grams of water added.

Setting [3] is: 1 part Air Products 506 Amidoamine + 1 part cosolvent amine by weight.
The mark [4] stands for this setting: 1 part Air Products 2460 Polyamide + 1 part cosolvent amine by weight.
Where [5] appears, read: 1 part Cardolite NC-540 Phenalkamine + 1 part cosolvent amine by weight.

With `CC(CN)CCCN` (stereo not drawn) [Cosolvent E], the “Parts of water added to 2 parts of amine blend yielding a clear solution” value (shortened to “Parts of water added”) is less than 6 parts in series [1] (setting [3]), 3.5 parts in series [1] (setting [4]) and less than 3.9 parts in series [1] (setting [5]).

As for `NC1CCCC1N` (stereo not drawn) [Cosolvent D, 1,2 Diaminocyclopentane], the “Parts of water added” value is listed as less than 5 parts in series [1] (setting [3]), less than 5 parts in series [1] (setting [4]) and less than 3.5 parts in series [1] (setting [5]).

As for `NCCOCCOCCN` [Cosolvent G], the entries for the “Parts of water added” value in series [1] (setting [3]), in series [1] (setting [4]) and in series [1] (setting [5]) were less than 2 parts, less than 2 parts and “<.5 parts”, respectively.

`NCc1cccc(CN)c1` [Cosolvent I, m-Xylylenediamine, reference compound]: the “Parts of water added” value in series [1] (setting [3]) was less than 5 parts; in series [1] (setting [4]), less than 3.75 parts; in series [1] (setting [5]), “<.5 parts”.

Regarding `NCC1CCCC(CN)C1` (stereo not drawn) [Cosolvent B, 1,3-Bis (aminomethyl) cyclohexane], the “Parts of water added” value in series [1] (setting [3]) was greater than 19 parts; in series [1] (setting [4]), greater than 10 parts; in series [1] (setting [5]), greater than 18 parts. Also, the “Appearance of aqueous solution” value in series [2] is recorded as “uniform, clear solution is formed”. Moreover, the “Stability of the solution” value in series [2] is given as “stable for greater than three months”.

As for `NCCCN1CCN(CCCN)CC1` [Cosolvent F, 1,4-Bis (3-aminopropyl) piperazine, reference compound], the entries for the “Parts of water added” value in series [1] (setting [3]), in series [1] (setting [4]) and in series [1] (setting [5]) were less than 4 parts, less than 2 parts and “<.5 parts”, respectively.

As to `NC1CCCCC1N` (stereo not drawn) [Cosolvent C, 1,2-Diamino cyclohexane], the “Dispersion of bacteriorhodopsin in the aqueous cosolvent” value on bacteriorhodopsin was “uniformly dispersed”.

Turning to `CCCCC(N)CN` (stereo not drawn) [Cosolvent H, 1,2-Hexanediamine, reference compound], the “Parts of water added” value is recorded as less than 7 parts in series [1] (setting [3]), less than 3.6 parts in series [1] (setting [4]) and less than 3 parts in series [1] (setting [5]).

Regarding `CC1(C)CC(N)CC(C)(CN)C1` (stereo not drawn) [Cosolvent A, Isophorone diamine], the “Parts of water added” value in series [1] (setting [3]) is given as greater than 28 parts; in series [1] (setting [4]), greater than 22 parts; in series [1] (setting [5]) it was greater than 30 parts.
